According to patent US9353094B2, “Substituted quinoxalines as kinase inhibitors” (BOARD OF REGENTS OF THE UNIVERSITY OF NEBRASKA, priority 2010, dated 2016):

Tests used:
[1] = system: human breast MDA-MB-231 tumor cell line; test: Cell growth inhibition assay (alamar blue); assay type: cell-based; conditions: MDA-MB-231, 20 μM, 72 h
Method: (§1) The compounds were screened in a growth inhibition assay at 20 μM over a 72 h period in a panel of cancer cell lines (lung-A549; pancreatic-Aspc1; colon-HT29; breast-MDAMB231; prostate-PC3; ovarian-SKOV3 and bone-U2OS) and the results are summarized in Table 2. […] This size effect was also observed with the urea compounds from the secondary amine (6j vs. 6l and 6k vs. 6m).
(§2) Cell Growth Inhibition Assay. Human lung A549, human pancreatic AsPC1, human colorectal HT-29, human breast MDA-MB-231, human prostate PC3, human ovarian SKOV3, and human osteosarcoma U2OS tumor cell lines were cultured in basal media containing 10% FBS and maintained in a 37° C. incubator with 5% CO2. All compounds were screened in 96 well microtiter plate format. In general, each cell line was plated at optimal assay density in 95 μl of propagation media in 96 well plates and incubated overnight. The next day, a standard alamar blue assay was performed (see below) on representative wells of each cell line for a Tz calculation. Subsequently, cells were treated in duplicate with a 5 μl volume of either vehicle only, positive controls etoposide and taxol, or test compounds at 20 μM (highest soluble compound concentration). The treated cells were incubated for 72 h and then assayed for growth by alamar blue assay. Briefly, 10 μl of reagent was added to each well and the plates returned to 37° C. After 3 h, fluorescence at 544ex/590em was measured using a SpectraMax M5 (Molecular Devices) plate reader. Growth is represented as a percentage of the control cells that were treated with vehicle only and % growth inhibition was determined using the NCI algorithm: Tz=number of untreated cells at zero time, C=Number of control cells at 72 h time, and T=number of compound treated cells at 72 h time; 100*([T−Tz]/[C−Tz]).

[2] = system: human colorectal HT-29 tumor cell line; test: Cell growth inhibition assay (alamar blue); assay type: cell-based; conditions: HT29, 20 μM, 72 h
Method: as §1, §2

[3] = system: human lung A549 tumor cell line; test: Cell growth inhibition assay (alamar blue); assay type: cell-based; conditions: A549, 20 μM, 72 h
Method: as §1, §2

[4] = system: human osteosarcoma U2OS tumor cell line; test: Cell growth inhibition assay (alamar blue); assay type: cell-based; conditions: 72 h
Method: as §1, §2

[5] = system: human ovarian SKOV3 tumor cell line; test: Cell growth inhibition assay (alamar blue); assay type: cell-based; conditions: SKOV3, 20 μM, 72 h
Method: as §1, §2

[6] = system: human pancreatic AsPC1 tumor cell line; test: Cell growth inhibition assay (alamar blue); assay type: cell-based; conditions: AsPC1, 20 μM, 72 h
Method: as §1, §2

[7] = system: human prostate PC3 tumor cell line; test: Cell growth inhibition assay (alamar blue); assay type: cell-based; conditions: PC3, 20 μM, 72 h
Method: as §1, §2

[8] = system: panel of cancer cell lines; test: Growth inhibition assay, whole panel; assay type: cell-based, human; conditions: 20 μM, 72 h
Method: as §1, §2

## O=C(Nc1ccccc1)Nc1ccc2nc(-c3ccco3)c(-c3ccco3)nc2c1 [5f]
[1]
  % Growth inhibition at 20 μM: 31.3 ± 10.7%
[2]
  % Growth inhibition at 20 μM: 52.1 ± 11.6%
[3]
  % Growth inhibition at 20 μM: 54.6 ± 2.6%
[4]
  % Growth inhibition at 20 μM: 59.6 ± 1.6%
[5]
  % Growth inhibition at 20 μM: 24.7 ± 1.1%
[6]
  % Growth inhibition at 20 μM: 9.6 ± 6.6%
[7]
  % Growth inhibition at 20 μM: 70.6 ± 1.3%
[8]
  growth inhibition of the various cancer cell lines (in words): inhibited growth

## O=[N+]([O-])c1ccc(NC(=S)Nc2ccc3nc(-c4ccco4)c(-c4ccco4)nc3c2)cc1 [6d]
[1]
  % Growth inhibition at 20 μM: 9.0 ± 4.7%
[2]
  % Growth inhibition at 20 μM: 42.0 ± 1.9%
[3]
  % Growth inhibition at 20 μM: 19.2 ± 8.9%
[4]
  % Growth inhibition at 20 μM: 32.2 ± 0.1%
[5]
  % Growth inhibition at 20 μM: Inactive
[6]
  % Growth inhibition at 20 μM: Inactive
[7]
  % Growth inhibition at 20 μM: 43.4 ± 9.3%
[8]
  growth inhibition of the various cancer cell lines (in words): active

## CC(=O)Nc1ccc2nc(-c3ccco3)c(-c3ccco3)nc2c1 [5b]
[1]
  % Growth inhibition at 20 μM: 20.3 ± 5.9%
[2]
  % Growth inhibition at 20 μM: 7.6 ± 5.1%
[3]
  % Growth inhibition at 20 μM: 57.8 ± 7.0%
[4]
  % Growth inhibition at 20 μM: Inactive
[5]
  % Growth inhibition at 20 μM: 9.0 ± 3.4%
[6]
  % Growth inhibition at 20 μM: Inactive
[7]
  % Growth inhibition at 20 μM: 57.7 ± 9.4%
[8]
  growth inhibition of the various cancer cell lines (in words): inhibited growth

## O=C(Nc1ccc2nc(-c3ccco3)c(-c3ccco3)nc2c1)N1CCOCC1 [6m]
[1]
  % Growth inhibition at 20 μM: 10.9 ± 5.0%
[2]
  % Growth inhibition at 20 μM: 19.4 ± 3.6%
[3]
  % Growth inhibition at 20 μM: 39.7 ± 12.8%
[4]
  % Growth inhibition at 20 μM: Inactive
[5]
  % Growth inhibition at 20 μM: Inactive
[6]
  % Growth inhibition at 20 μM: Inactive
[7]
  % Growth inhibition at 20 μM: 48.9 ± 7.5%
[8]
  growth inhibition of the various cancer cell lines (in words): active

## O=C(Nc1ccc2nc(-c3ccco3)c(-c3ccco3)nc2c1)N1CCCC1 [6h]
[1]
  % Growth inhibition at 20 μM: 18.2 ± 7.0%
[2]
  % Growth inhibition at 20 μM: 16.7 ± 3.7%
[3]
  % Growth inhibition at 20 μM: 23.3 ± 2.9%
[4]
  % Growth inhibition at 20 μM: 46.5 ± 4.4%
[5]
  % Growth inhibition at 20 μM: 16.9 ± 4.9%
[6]
  % Growth inhibition at 20 μM: 11.6 ± 4.2%
[7]
  % Growth inhibition at 20 μM: 53.1 ± 9.9%
[8]
  growth inhibition of the various cancer cell lines (in words): active

## O=C(Nc1ccc2nc(-c3ccco3)c(-c3ccco3)nc2c1)N1CCC(Cc2ccccc2)CC1 [6k]
[1]
  % Growth inhibition at 20 μM: 90.8 ± 4.5%
[2]
  % Growth inhibition at 20 μM: 55.2 ± 4.1%
[3]
  % Growth inhibition at 20 μM: 93.1 ± 7.8%
[4]
  % Growth inhibition at 20 μM: 80.3 ± 2.4%
[5]
  % Growth inhibition at 20 μM: 47.6 ± 2.5%
[6]
  % Growth inhibition at 20 μM: >100%
[7]
  % Growth inhibition at 20 μM: >100%
[8]
  growth inhibition of the various cancer cell lines (in words): active
